# Measurements reported in patent publication US20220175761A1, “BI-LIGAND DRUG CONJUGATE AND USE THEREOF” (COHERENT BIOPHARMA (SUZHOU), LIMITED, priority 2019, published 2022).
# Square brackets hold non-standard residues; d marks the D form. Peptide text beside a SMILES is read from it. * marks the point of attachment. Dolaproine = CO[C@@H]([C@@H]1CCCN1)[C@@H](C)C(=O)O; Dil = CC[C@H](C)[C@H](NC)[C@@H](CC(=O)O)OC; X1 = C[C@@H](N*)[C@@H](O)c1ccccc1; NMeV = CN[C@H](C(=O)O)C(C)C
# Legend:
# LNCaP = experiment: Pharmacodynamic study 2 in CDX model; type: in vivo, BALB/c-nude mice; settings: 3 mg/kg D1, 8, 15, tail vein
# Protocol: Experiment purpose: to perform a pharmacodynamic study of conjugate compound CB-20BK in a subcutaneous xenograft model (CDX) of humanized LNCaP, DU145 and NCI-H460 cell lines
# The cells or tumor tissue mass were prepared and subcutaneously inoculated into the anterior right flank of BALB/c-nude mice. When the tumor volume expanded to 80-160 mm^3, a randomized grouping was performed, and a model control group and administration groups were set. The mice were administrated from the first day of grouping, wherein the administration dose was adjusted according to the latest weight measurement. The mice were administrated via tail vein injection at an administration volume of 10 μl/g. After grouping and administration, the effects of tumor growth and treatment on normal behaviors of animals, specifically including the activity of experimental animals, food intake and drinking status, weight gain or loss status, and other abnormal conditions in eyes, hair, etc., were monitored. After grouping and administration, the weight of mice was measured twice a week to calculate the rate of weight change; at the same time, the long diameter and short diameter of the tumor were measured with a vernier caliper, and the tumor volume, relative tumor proliferation rate, tumor volume inhibition rate and other indicators were calculated. […]
# LU1380 = experiment: Tumor growth inhibition in HuPrime xenograft lung cancer PDX model; type: in vivo, BALB/c-nude mice; settings: 3 mg/kg, tail vein
# Protocol: (§1) Experimental scheme: The tumor tissue mass were prepared and subcutaneously inoculated into the anterior right flank of BALB/c-nude mice. When the tumor volume expanded to 80-160 mm^3, a randomized grouping was performed, and a model control group and administration groups were set. The mice were administrated from the first day of grouping, wherein the administration dose was adjusted according to the latest weight measurement. The mice were administrated via tail vein injection at an administration volume of 10 μl/g and an administration dosage of 3 mg/kg. After grouping and administration, the effects of tumor growth and treatment on normal behaviors of animals, specifically including the activity of experimental animals, food intake and drinking status, weight gain or loss status, and other abnormal conditions in eyes, hair, etc., were monitored. After grouping and administration, the weight of mice was measured twice a week to calculate the rate of weight change; at the same time, the long diameter and short diameter of the tumor were measured with a vernier caliper, and the tumor volume, relative tumor proliferation rate, tumor volume inhibition rate and other indicators were calculated. The formula of tumor volume is TV=0.5 a×b^2, wherein a is the long diameter of a tumor and b is the short diameter of a tumor.
# LU0367 = experiment: as above; type: in vivo, BALB/c-nude mice; settings: 3 mg/kg, tail vein
# Protocol: as §1
# LU1206 = experiment: as above; type: in vivo, BALB/c-nude mice; settings: 3 mg/kg, tail vein
# Protocol: as §1
# [1] = test system: KB, T-47D, NCI-H460, CALU-3, HuH-7, and LNCaP tumor cell lines; experiment: Inhibition of tumor cell expansion, CCK8 (CB-20BK); type: cell-based, human
# Protocol: Cell lines: KB human oral epidermoid carcinoma cells, T-47D human breast cancer cells, NCI-H460 human lung cancer cells, CALU-3 human lung adenocarcinoma cells, HuH-7 human liver cancer cells and LNCaP human prostate cancer cells
# The cells were prepared in advance, digested with trypsin, collected and counted; with a complete cell culture medium, KB cells were diluted to 2.5×10^4 cells/ml, T-47D cells were diluted to 1.3×10^4 cells/ml, NCI-H460 cells were diluted to 3.5×10^4 cells/ml, CALU-3 cells were diluted to 4.0×10^4 cells/ml, HuH-7 cells were diluted to 3.0×10^4 cells/ml, and LNCaP cells were diluted to 8.0×10^4 cells/ml; 100 μl of the diluted cell solution was added to each well of 96-well plates; and negative control and blank control wells were set on each plate. The 96-well plates added with the cells were placed in an incubator at 37° C., 5% CO2 for culturing overnight.
# The samples were diluted with a culture medium to desired concentrations (see Table 8). […]
# To each well, 15 μl (10% of the liquid volume in a well) of a color developing solution from CCK-8 was added; the plates were incubated at 37° C. for an appropriate time (try to keep the OD value in the range of 1.0-2.0); the covers of the 96-well plates were removed, and the plates were read at 450 nm on a microplate reader (Molecular Devices Spectra MAX Plus). […]
# BR0438 = experiment: Tumor growth inhibition in HuPrime xenograft breast cancer PDX model; type: in vivo, BALB/c-nude mice; settings: 3 mg/kg, tail vein
# Protocol: as §1
# BR1283 = experiment: as above; type: in vivo, BALB/c-nude mice; settings: 3 mg/kg, tail vein
# Protocol: as §1
# FOLH1 = FOLH1 (Homo sapiens, UniProt Q04609); experiment: BIAcore T200: binding of FOLH1 to compound-FOLR1 complex; set-up: purchased Sino Biologicals (FOLH1); R&D System (FOLR1) 15877-H07H (FOLH1); 5646-FR (FOLR1)
# Chain of FOLH1 (Q04609 44-750 limits assumed): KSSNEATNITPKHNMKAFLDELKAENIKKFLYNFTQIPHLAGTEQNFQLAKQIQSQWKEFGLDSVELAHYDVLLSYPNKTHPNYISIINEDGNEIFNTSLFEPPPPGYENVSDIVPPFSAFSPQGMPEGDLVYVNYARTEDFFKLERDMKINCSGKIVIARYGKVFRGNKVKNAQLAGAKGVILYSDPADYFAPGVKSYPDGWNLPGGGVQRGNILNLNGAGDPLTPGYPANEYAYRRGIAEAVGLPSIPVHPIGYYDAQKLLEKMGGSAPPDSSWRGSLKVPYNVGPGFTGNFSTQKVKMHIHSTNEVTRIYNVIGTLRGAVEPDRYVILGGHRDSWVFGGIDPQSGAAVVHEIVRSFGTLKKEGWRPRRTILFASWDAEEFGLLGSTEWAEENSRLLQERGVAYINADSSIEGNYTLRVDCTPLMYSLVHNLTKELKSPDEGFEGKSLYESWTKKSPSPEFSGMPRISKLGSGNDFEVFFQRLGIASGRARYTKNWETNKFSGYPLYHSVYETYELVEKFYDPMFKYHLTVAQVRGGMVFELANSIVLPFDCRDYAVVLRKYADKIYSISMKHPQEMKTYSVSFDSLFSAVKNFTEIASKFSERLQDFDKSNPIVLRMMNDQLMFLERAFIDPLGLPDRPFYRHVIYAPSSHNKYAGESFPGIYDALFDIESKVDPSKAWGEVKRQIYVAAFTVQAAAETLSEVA
# Chain of FOLH1 (P15328 25-233 partner limits assumed): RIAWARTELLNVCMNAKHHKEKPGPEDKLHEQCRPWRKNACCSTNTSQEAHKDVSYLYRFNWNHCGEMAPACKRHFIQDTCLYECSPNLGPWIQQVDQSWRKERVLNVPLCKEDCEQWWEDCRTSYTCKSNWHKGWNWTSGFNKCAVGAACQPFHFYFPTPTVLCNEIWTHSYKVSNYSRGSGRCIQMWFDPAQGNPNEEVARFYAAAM
# Excerpt: CM5 chip was conjugated with a ligand: FOLR1 (R&D System, Cat #: 5646-FR)
# Analyte: CB-20BK, FA-MMAE and FOLH1 (Sino Biologicals, Cat #: 15877-H07H)
# According to BIAcore T200 (GE) operating manual, FOLR1 was conjugated to the CM5 chip; CB-20BK or FA-MMAE was loaded first, and then FOLH1 was loaded; and the binding of FOLH1 to the CB-20BK-FOLR1 complex was detected.
# [2] = test system: lung cancer PDX model LU1206; experiment: Effectiveness in lung cancer LU1206 model (PDX model); type: in vivo, BALB/c nude mice
# Protocol: (§2) BALB/c nude mice bore tumors subcutaneously and, when the tumor volume reached about 150 mm^3, were grouped into: low-dose, medium-dose and high-dose test sample groups, a small molecule MMAE control group, a targeting polypeptide 20BK-SM09 control group, and a blank control group (a total of 6 groups, and 8 mice per group); the mice were administered on day 1, day 8 and day 15 after the grouping; and the observation was continued for 14 days after the last administration.
# [3] = test system: lung cancer PDX model LU2505; experiment: Effectiveness in lung cancer LU2505 model (PDX model); type: in vivo, BALB/c nude mice
# Excerpt: The active substance of test sample CBP-1018 is CB-20BK, which is obtained by mixing CB-20BK with auxiliary materials and then lyophilizing same.
# [4] = Body weight and clinical observation in the LU1206 study; settings: 0.375 mg/kg on day 1, 8, 15
# Protocol: as §2
# [5] = 0.375 mg/kg on day 1, 8, 15, euthanized on day 29
# [6] = 0.375 mg/kg on day 1, 8, 15, D22
structure (smiles),measurement,setting,value
CC[C@H](C)[C@@H]([C@@H](CC(=O)N1CCC[C@H]1[C@H](OC)[C@@H](C)C(=O)N[C@H](C)[C@@H](O)c1ccccc1)OC)N(C)C(=O)[C@@H](NC(=O)[C@H](C(C)C)N(C)C(=O)OCc1ccc(NC(=O)C(CCCNC(N)=O)NC(=O)[C@@H](NC(=O)CCCCCN2C(=O)CC(SC[C@H](NC(=O)[C@H](CCCCN)NC(=O)[C@H](CC(=O)O)NC(=O)[C@H](CC(=O)O)NC(=O)Cc3ccc(CNC(=O)NCCCC[C@H](NC(=O)N[C@@H](CCC(=O)O)C(=O)O)C(=O)O)cc3)C(=O)N[C@@H](CCCCNC(=O)CC[C@H](NC(=O)c3ccc(NCc4cnc5[nH]c(N)nc(=O)c5n4)cc3)C(=O)O)C(N)=O)C2=O)C(C)C)cc1)C(C)C (some centres unmarked) [CB-20BK],Tumor growth inhibition rate (TGI),LNCaP,95.68%
same,TGI,LU1380,30.02%
same,TGI,LU0367,71.34%
same,TGI,LU1206,90.89%
same,inhibitory effect on growth and expansion of tumor cell lines,"[1]; 72 hours, CCK-8",has an inhibitory effect
same,IC50 compared between cell lines,"[1]; T-47D, KB, LNCaP, HuH-7 and CALU-3 versus NCI-H460",significantly lower
same,TGI,BR0438,70.74%
same,TGI,BR1283,96.49%
same,Binding of compound-FOLR1 complex to FOLH1 solution,FOLH1; FOLH1 concentration 0.0625 μM,−0.9 RU
same,Binding of compound-FOLR1 complex to FOLH1 solution,FOLH1; FOLH1 concentration 0.125 μM,4.6 RU
same,Binding of compound-FOLR1 complex to FOLH1 solution,FOLH1; FOLH1 concentration 0.25 μM,14.1 RU
same,Binding of compound-FOLR1 complex to FOLH1 solution,FOLH1; FOLH1 concentration 0.5 μM,23.9 RU
same,amount of FOLH1 bound to compound-FOLR1 complex (in words),FOLH1; FOLH1 solution at a high concentration,significantly higher than that bound to an FA-MMAE-FOLR1 complex
"CC[C@H](C)[C@@H]([C@@H](CC(=O)N1CCC[C@H]1[C@H](OC)[C@@H](C)C(=O)N[C@H](C)[C@@H](O)c1ccccc1)OC)N(C)C(=O)[C@@H](NC(=O)[C@@H](NC)C(C)C)C(C)C [MMAE, monomethyl auristatin E] (H-[NMeV]V[Dil][Dolaproine]-X1)",tumor growth inhibition effect (in words),[2]; 0.375 mg/kg,clear tumor growth inhibition effect
same,Tumor volume,"[2]; 0.375 mg/kg on day 1, 8, 15",778.32 mm^3
same,Tumor volume Tumor growth inhibition rate,"[2]; 0.375 mg/kg on day 1, 8, 15",36.03%
same,Tumor weight,[2]; [5],437.73 mg
same,Tumor weight Inhibition ratio,[2]; [5],54.53%
same,tumor growth inhibition effect (in words),[3]; 0.375 mg/kg,clear tumor growth inhibition effect
same,Tumor growth inhibition rate TGI %,[3]; [6],48.97%
same,Tumor volume,[3]; [6],1132.61 mm^3
same,Tumor weight,"[3]; 0.375 mg/kg on day 1, 8, 15, D29",1597.1 (D29) mg
same,Weight,[4],23.6 g
